Reference: BigSolDB 2.1

O=[N+]([O-])c1cccc2c([N+](=O)[O-])cccc12
solubility (mole fraction)
Settings | in acetone | in acetonitrile | in chloroform | in ethanol | in ethyl acetate | in ethylbenzene | in n-propanol | in toluene
273.15 K | 0.000703 | 0.000236 | 0.000629 | 1.99e-05 | 0.000648 | 0.000522 | 2.17e-05 | 0.000683
275.65 K | 0.000762 | 0.000265 | 0.000731 | 2.25e-05 | 0.000699 | 0.000578 | 2.53e-05 | 0.000761
278.15 K | 0.000844 | 0.000296 | 0.000881 | 2.62e-05 | 0.000754 | 0.000638 | 2.96e-05 | 0.000858
280.65 K | 0.000912 | 0.000333 | 0.00102 | 3.1e-05 | 0.000835 | 0.000714 | 3.41e-05 | 0.000958
283.15 K | 0.000991 | 0.000372 | 0.00118 | 3.66e-05 | 0.000923 | 0.000785 | 3.92e-05 | 0.00106
285.65 K | 0.00108 | 0.000415 | 0.00135 | 4.16e-05 | 0.000998 | 0.000863 | 4.45e-05 | 0.00117
288.15 K | 0.00117 | 0.000468 | 0.00153 | 4.81e-05 | 0.00113 | 0.000941 | 5.16e-05 | 0.00129
290.65 K | 0.00126 | 0.00053 | 0.0017 | 5.43e-05 | 0.00123 | 0.00104 | 5.77e-05 | 0.00141
293.15 K | 0.00138 | 0.000585 | 0.00192 | 6.15e-05 | 0.00136 | 0.00116 | 6.54e-05 | 0.00153
295.65 K | 0.00149 | 0.000659 | 0.00213 | 6.94e-05 | 0.00148 | 0.00129 | 7.43e-05 | 0.0017
298.15 K | 0.00164 | 0.000741 | 0.00238 | 7.82e-05 | 0.00164 | 0.0014 | 8.45e-05 | 0.00186
300.65 K | 0.00174 | 0.000831 | 0.00269 | 8.74e-05 | 0.0018 | 0.00152 | 9.67e-05 | 0.00205
303.15 K | 0.0019 | 0.000914 | 0.00295 | 9.75e-05 | 0.00198 | 0.00166 | 0.00011 | 0.00223
305.65 K | 0.00201 | 0.000997 | 0.00334 | 0.000109 | 0.00218 | 0.00182 | 0.000126 | 0.00242
308.15 K | 0.00217 | 0.00111 | 0.00369 | 0.000122 | 0.00238 | 0.00201 | 0.000142 | 0.00264
310.65 K | 0.00229 | 0.00121 | 0.00408 | 0.000139 | 0.00258 | 0.00219 | 0.000163 | 0.00287
313.15 K | 0.00242 | 0.00133 | 0.00451 | 0.000157 | 0.00284 | 0.00248 | 0.000182 | 0.00309
